Measured values reported in US20230278972A1, “SUBSTITUTED HALOALKYL SULFONANILIDE HERBICIDES” (FMC Corporation, priority 2020, published 2023).

Legend:
Format in all cases: in vivo
corn (Zea mays) = assay: Test A1 preemergence, corn
How it was run: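 Postemergence species (ragweed, Palmer pigweed, wild oat) were sprayed at one- to two-leaf stage, 2 to 10 cm tall. Corn was treated preemergence by directed soil spray. Both used a loam soil/sand blend and compounds in a non-phytotoxic solvent mixture with surfactant.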

[1] = tested on: Foxtail, Giant (giant foxtail, Setaria faberi); assay: Test A1 postemergence, Foxtail, Giant; conditions: Postemergence
How it was run: (§1)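 Test compounds were formulated in a non-phytotoxic solvent mixture containing a surfactant. For preemergence, seeds sown in a loam soil–sand blend received a directed soil spray. For postemergence, potted plants in the same soil, 2 to 10 cm tall at the one- to two-leaf stage, were sprayed.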

[2] = tested on: galium (catchweed bedstraw, Galium aparine); assay: Test A1 postemergence, galium; conditions: Postemergence
How it was run: as §1

[3] = tested on: goosegrass (Eleusine indica); assay: Test A1 postemergence, goosegrass; conditions: Postemergence
How it was run: as §1

[4] = tested on: Ryegrass, Italian (Italian ryegrass, Lolium multiflorum); assay: Test A1 preemergence, Ryegrass, Italian
How it was run: (§2)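 Both timings started from seed in a loam-sand blend. Preemergence pots got a directed soil application immediately; postemergence pots were sprayed when seedlings had one or two leaves and stood 2–10 cm. Each compound was prepared in a non-phytotoxic solvent plus surfactant.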

[5] = tested on: blackgrass (Alopecurus myosuroides); assay: Test A1 postemergence, blackgrass; conditions: Postemergence, 0 to 100 scale (0 no effect, 100 complete control)
How it was run: as §1

[6] = tested on: Foxtail, Giant (giant foxtail, Setaria faberi); assay: Test A1 preemergence, Foxtail, Giant
How it was run: as §2

[7] = tested on: ragweed (common ragweed, Ambrosia artemisiifolia); assay: Test A1 preemergence, ragweed
How it was run: as §2

[8] = 31 g ai/ha, 0 to 100 scale (0 no effect, 100 complete control)
[9] = 125 g ai/ha, 0 to 100 scale, 0 no effect, 100 complete control
[10] = 31 g ai/ha, 0 to 100 scale (0 no effect, 100 complete control), 10 days

SMILES | Plant response rating, Corn (corn (Zea mays); [8]) | Plant response rating, Corn (corn (Zea mays); [9]) | Plant response rating, Foxtail, Giant [1, 10] | Plant response rating, Foxtail, Giant ([1]; 125 g ai/ha, 0 to 100 scale) | Plant response rating, Galium [2, 10] | Plant response rating, Galium ([2]; 125 g ai/ha, 0 to 100 scale) | Plant response rating, Goosegrass [3, 10] | Plant response rating, Goosegrass ([3]; 125 g ai/ha, 0 to 100 scale) | Plant response rating, Ryegrass, Italian [4, 8] | Plant response rating, Ryegrass, Italian [4, 9] | Plant response rating, Blackgrass ([5]; 31 g ai/ha, 10 days) | Plant response rating, Blackgrass ([5]; 125 g ai/ha) | Plant response rating, Foxtail, Giant [6, 8] | Plant response rating, Foxtail, Giant [6, 9] | Plant response rating, Ragweed [7, 8] | Plant response rating, Ragweed [7, 9]
Cc1cc(C)c(N(COC(=O)C(C)(C)C)S(=O)(=O)C(F)(F)F)cc1C(=O)N1CCC(c2ccccc2)CC1 [Compound 364] | 0 | 0 | 0 | 20 | 0 | 30 | 0 | 0 | 0 | 0 | 0 | 0 | 0 | 0 | 0 | 0
Cc1c(C(=O)N2CCCCC2)cc(N(COC(=O)C(C)(C)C)S(=O)(=O)C(F)(F)F)c(C)c1C [Compound 329, [[(Trifluoromethyl)sulfonyl][2,3,4-trimethyl-5-(1-piperidinylcarbonyl)phenyl]amino]methyl 2,2-dimethylpropanoate] | 0 | 0 | 10 | 70 | 50 | 80 | 0 | 30 | 0 | 0 | 0 | 30 | 30 | 50 | 60 | 70
Cc1cc(C)c(N(COC(=O)C(C)C)S(=O)(=O)C(F)(F)F)cc1C1=NOC2CCCC12 (centres unmarked) [Compound 308] | 0 | 60 | 0 | 40 | 60 | 90 | 50 | 80 | 60 | 90 | 0 | 0 | 50 | 80 | 0 | 50
Cc1c(C(=O)N(C)C)cc(NS(=O)(=O)C(F)(F)F)c(Cl)c1F [Compound 320] | 0 | 30 | 0 | 40 | 70 | 90 | 40 | 0 | 90 | 90 | 40 | 0 | 10 | 100 | 60 | 70
Cc1c(C(=O)N2CCOCC2)cc(N(COC(=O)C(C)(C)C)S(=O)(=O)C(F)(F)F)c(C)c1C [Compound 324, [[(Trifluoromethyl)sulfonyl][2,3,4-trimethyl-5-(4-morpholinylcarbonyl)phenyl]amino]methyl 2,2-dimethylpropanoate] | 20 | 40 | 20 | 90 | 50 | 80 | 30 | 80 | 20 | 100 | 0 | 0 | 90 | 100 | 20 | 80
Cc1cc(C)c(C2=NOC(OCC(C)C)C2)cc1NS(=O)(=O)C(F)(F)F (centres unmarked) [Compound 322] | 0 | 30 | 0 | 40 | 40 | 70 | 20 | 50 | 60 | 90 | 20 | 50 | 40 | 80 | 20 | 30
Cc1cc(C)c(N(COC(=O)C(C)(C)C)S(=O)(=O)C(F)(F)F)cc1C(=O)N1CCOCC1 [Compound 362] | 0 | 30 | 20 | 90 | 60 | 80 | 40 | 90 | 30 | 70 | 0 | 50 | 20 | 90 | 0 | 50
CCc1cc(C)c(NS(=O)(=O)C(F)(F)F)cc1C1=NOC2CCCC12 (centres unmarked) [Compound 305] | 10 | 90 | 20 | 60 | 50 | 60 | 10 | 80 | 40 | 90 | 0 | 0 | 20 | 90 | 0 | 20
CCOC(=O)N(c1cc(C(=O)N2CCOCC2)c(C)cc1C)S(=O)(=O)C(F)(F)F [Compound 363] | 0 | 60 | 30 | 90 | 60 | 90 | 30 | 90 | 80 | 100 | 0 | 50 | 90 | 100 | 20 | 80
Cc1cc(C)c(C2=NOC3(C)CCCC23)cc1NS(=O)(=O)C(F)(F)F (centres unmarked) [Compound 340] | 0 | 90 | 10 | 50 | 50 | 80 | 60 | 90 | 50 | 100 | 0 | 20 | 50 | 100 | 10 | 90
Cc1cc(C)c(N(S(=O)(=O)C(F)(F)F)S(=O)(=O)C(F)(F)F)cc1C1=NOC2COCC12 (centres unmarked) [Compound 296] | 0 | 70 | 0 | 10 | 50 | 80 | 20 | 60 | 0 | 90 | 0 | 0 | 30 | 100 | 50 | 90
